From ChEMBL document CHEMBL1201862, “PubChem BioAssay data set” (2004)
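Growth conditions: 96-well plates. Treatment: test compound, 48 hours, 5 concentrations. Analysis: linear interpolation between bracketing concentrations; unreached endpoints set to highest concentration. GI50 is the concentration that inhibits growth by half.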 The source made the active and inactive calls. Rule as the data show it: active = GI50 up to about 1.1 µM and inactive = higher.

What was measured:
Assay in all cases: inhibition of tumour cell growth, NCI panel, 48 h
[1] = test system: UACC-62
[2] = test system: DU-145
[3] = test system: SF-295
[4] = test system: BT-549
[5] = test system: SK-OV-3
[6] = test system: OVCAR-3
[7] = test system: HOP-92
[8] = test system: OVCAR-5
[9] = test system: MCF7
[10] = test system: HCT-15
[11] = test system: UO-31
[12] = test system: 786-0
[13] = test system: LOX IMVI
[14] = test system: HCT-116
[15] = test system: Malme-3M
[16] = test system: MDA-N
[17] = test system: MOLT-4
[18] = test system: SNB-75
[19] = test system: NCI-H522
[20] = test system: HL-60

CCOC(=O)c1nc2ccccc2nc1Oc1ccc(C(=O)OC)cc1
GI50 [1]: > 100 µM (inactive)
GI50 [2]: > 100 µM (inactive)
GI50 [3]: > 100 µM (inactive)
GI50 [4]: > 100 µM (inactive)
GI50 [5]: > 100 µM (inactive)
GI50 [6]: > 100 µM (inactive)
GI50 [7]: > 100 µM (inactive)
GI50 [8]: > 100 µM (inactive)
GI50 [9]: > 100 µM (inactive)
GI50 [10]: > 100 µM
GI50 [11]: > 100 µM (inactive)
GI50 [12]: > 100 µM (inactive)
GI50 [13]: > 100 µM (inactive)
GI50 [14]: > 100 µM (inactive)
GI50 [15]: > 100 µM (inactive)
GI50 [16]: > 100 µM (inactive)
GI50 [17]: 2.87 µM (inactive)
GI50 [18]: 29 µM (inactive)

O=C1c2cccnc2C(=O)c2c1nc1ccccc1c2-c1cncc(-c2c3c(nc4ccccc24)C(=O)c2cccnc2C3=O)c1
GI50 [1]: 0.474 µM (active)
GI50 [2]: 0.165 µM (active)
GI50 [3]: 0.614 µM (active)
GI50 [4]: 0.502 µM (active)
GI50 [5]: 0.363 µM (active)
GI50 [6]: 0.0752 µM (active)
GI50 [19]: 0.103 µM (active)
GI50 [8]: 1.8 µM (inactive)
GI50 [9]: 0.157 µM (active)
GI50 [10]: 0.0251 µM
GI50 [11]: 0.244 µM (active)
GI50 [12]: 0.0995 µM (active)
GI50 [13]: 0.139 µM (active)
GI50 [14]: 0.139 µM (active)
GI50 [20]: 0.0687 µM (active)
GI50 [15]: 0.28 µM (active)
GI50 [16]: 0.399 µM (active)
GI50 [17]: 0.117 µM (active)
GI50 [18]: 0.398 µM (active)

O=C(O)c1cc(/N=N/c2ccc([As](=O)(O)O)cc2)ccc1O
GI50 [1]: > 100 µM (inactive)
GI50 [2]: > 100 µM (inactive)
GI50 [3]: > 100 µM (inactive)
GI50 [4]: > 100 µM (inactive)
GI50 [5]: > 100 µM (inactive)
GI50 [6]: > 100 µM (inactive)
GI50 [19]: > 100 µM (inactive)
GI50 [8]: > 100 µM (inactive)
GI50 [9]: > 100 µM (inactive)
GI50 [10]: > 100 µM
GI50 [11]: > 100 µM (inactive)
GI50 [12]: > 100 µM (inactive)
GI50 [13]: > 100 µM (inactive)
GI50 [14]: > 100 µM (inactive)
GI50 [20]: > 100 µM (inactive)
GI50 [15]: > 100 µM (inactive)
GI50 [16]: > 100 µM (inactive)
GI50 [17]: > 100 µM (inactive)
GI50 [18]: > 100 µM (inactive)

CC1=C(C#N)C2C(=C(N)Oc3ccccc32)C(N)=N1 (stereo unspecified)
GI50 [1]: 20.7 µM (inactive)
GI50 [2]: 21.1 µM (inactive)
GI50 [3]: 26.9 µM (inactive)
GI50 [4]: 32 µM (inactive)
GI50 [5]: 8.38 µM (inactive)
GI50 [6]: 44.8 µM (inactive)
GI50 [19]: 15.4 µM (inactive)
GI50 [8]: 24.8 µM (inactive)
GI50 [9]: 6.56 µM (inactive)
GI50 [10]: 17.9 µM
GI50 [11]: 17.4 µM (inactive)
GI50 [12]: 20.4 µM (inactive)
GI50 [13]: 20.1 µM (inactive)
GI50 [14]: 24.4 µM (inactive)
GI50 [20]: 29.1 µM (inactive)
GI50 [15]: 16 µM (inactive)
GI50 [16]: 21.8 µM (inactive)
GI50 [17]: 75 µM (inactive)
GI50 [18]: 18.7 µM (inactive)

COc1ccc(-n2c(CCC(=O)O)nc3c2C(=O)c2ccccc2C3=O)cc1
GI50 [1]: > 100 µM (inactive)
GI50 [2]: > 100 µM (inactive)
GI50 [3]: > 100 µM (inactive)
GI50 [4]: > 100 µM (inactive)
GI50 [5]: > 100 µM (inactive)
GI50 [6]: 98.2 µM (inactive)
GI50 [19]: 34.3 µM (inactive)
GI50 [8]: > 100 µM (inactive)
GI50 [9]: 84.5 µM (inactive)
GI50 [10]: > 100 µM
GI50 [11]: > 100 µM (inactive)
GI50 [12]: > 100 µM (inactive)
GI50 [13]: 28.3 µM (inactive)
GI50 [14]: 80.2 µM (inactive)
GI50 [20]: > 100 µM (inactive)
GI50 [16]: > 100 µM (inactive)
GI50 [17]: > 100 µM (inactive)
GI50 [18]: > 100 µM (inactive)

COc1cc2c(cc1OCCCN1C(=O)c3cccc4cccc(c34)C1=O)N=C[C@@H]1CCCN1C2=O
GI50 [1]: > 62.7 µM (inactive)
GI50 [2]: 46.1 µM (inactive)
GI50 [3]: > 95.1 µM (inactive)
GI50 [4]: 36.6 µM (inactive)
GI50 [5]: > 100 µM (inactive)
GI50 [6]: 32.8 µM (inactive)
GI50 [19]: 14.3 µM (inactive)
GI50 [7]: 22.2 µM (inactive)
GI50 [8]: > 89.1 µM (inactive)
GI50 [9]: 2.47 µM (inactive)
GI50 [10]: 23.1 µM
GI50 [11]: 22.5 µM (inactive)
GI50 [12]: 21 µM (inactive)
GI50 [13]: 33.9 µM (inactive)
GI50 [14]: 36.1 µM (inactive)
GI50 [15]: 19.5 µM (inactive)
GI50 [16]: 37.2 µM (inactive)
GI50 [17]: 14 µM (inactive)
